Laboratory results reported in patent publication US5760036A, “Aminediol protease inhibitors” (E. R. Squibb & Sons, Inc., priority 1995, dated 1998).

Experiments:
[1] = system: RF strain of HIV (CEM-SS cells); experiment: Cell Culture Anti-HIV Activity (cell viability, formazan); assay type: cell-based; conditions: Human immunodeficiency virus 1, CEM-SS, 144 h, CEM-SS cells, RF strain of HIV, multiplicity of infection 0.04, 6 days at 37° C., 450 nm; read-out: HIV (CEM Cells) IC50
How it was run: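 Half-log compound dilutions added to CEM-SS cells (5000/well) carrying HIV RF (MOI 0.04), 6 days, 37° C. Cell protection measured as formazan from tetrazolium, A450. IC50: drug level restoring infected-cell formazan to 50% of the uninfected untreated control.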

[2] = target: T1, HIV protease (Human immunodeficiency virus type 1 group M subtype B, UniProt P04585); experiment: HIV Protease Assay; assay type: biochemical; conditions: pH 5.5, 10 μM inhibitor, 4% DMSO, 450 μM substrate, pH 5.5, 30 minutes at 37° C., RP-HPLC; read-out: HIV Protease % Inhibition at 10 μM
T1 construct: and purified protease
How it was run: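 At a single final concentration of 10 μM (4% DMSO), inhibitors were added to a 30-minute, 37° C reaction of purified enzyme with 450 μM H2N-Val-Ser-Gln-Asn-(β-naphthyl-alanine)-Pro-Val-Ile-OH at pH 5.5 (sodium acetate, BSA). Hydrolysis was quantified by reverse-phase HPLC with 220 nm detection after acid quench.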

inhibition at 10 µM [2] [%] | SMILES | IC50 [1] [nM]
99 | CC(C)(C)OC(=O)N[C@@H](Cc1ccccc1)[C@H](O)CNC[C@@H](O)[C@H](Cc1ccccc1)NC(=O)[C@H](CCO)NC(=O)OCc1ccccc1 (relative stereo) [Compound 264, [1R*2S*(2S*,3R*)]-N-[3-[[3-[[(1,1-Dimethylethoxy)carbonyl]amino]-2-hydroxy-4-phenylbutyl]amino]-2-hydroxy-l-(phenylmethyl)propyl]-N^2-[(phenylmethoxy)carbonyl]-L-homoserinamide] | 160
100 | CC(C)(C)OC(=O)N[C@@H](Cc1ccccc1)[C@H](O)CNC[C@@H](O)[C@H](Cc1ccccc1)NC(=O)OC1(C)CCCC1 [Compound 159, [1S-(1R*,2S*)]-[Iminobis[2-hydroxy-1-(phenylmethyl)-3,1-propanediyl]]bis-[carbamic acid], 1,1-dimethylethyl 1-methyl-cyclopentyl ester] | 1300
84 | CC(C)(C)OC(=O)N[C@@H](Cc1ccccc1)[C@H](O)CNC[C@@H](O)[C@H](Cc1ccc(OCc2ccccc2)cc1)NC(=O)OCc1ccccc1 [Compound 17, [1S-[1R*,2S*(2S*,3R*)]]-[3-[[3-[[(1,1-Dimethylethoxy)carbonyl]amino]2-hydroxy-4-phenylbutyl]amino]-2-hydroxy-1-[[4-(phenylmethoxy)phenyl]methyl]propyl]carbamic acid, phenylmethyl ester] | > 1500
100 | CC(C)[C@H](NC(=O)NCc1nc2ccccc2[nH]1)C(=O)N[C@@H](Cc1ccccc1)[C@H](O)CNC[C@@H](O)[C@H](Cc1ccccc1)NC(=O)OC(C)(C)C (relative stereo) [Compound 273, [1R*,2S*(2S*,3R*)]-N^2-[[(1H-Benzimidazol-2-ylmethyl)amino]carbonyl]-N-[3-[[3-[[(1,1-dimethylethoxy)carbonyl]amino]-2-hydroxy-4-phenylbutyl]amino]-2-hydroxy-1-(phenylmethyl)propyl]-L-valinamide] | 1700
97 | CC(C)(C)OC(=O)N[C@@H](C/C=C/c1ccc(O)cc1)[C@H](O)CNC[C@@H](O)[C@H](Cc1ccccc1)NC(=O)OC(C)(C)C [Compound 235, [1S-[1R*,2S*[2S*,3R*(E)]]]-[3-[[3-[[(1,1-Dimethylethoxy)carbonyl]amino]-2-hydroxy-6-(4-hydroxyphenyl)-5-hexenyl]amino]-2-hydroxy-1-(phenylmethyl)propyl]carbamic acid, 1,1-dimethylethyl ester] | 350
99 | CC(C)(C)OC(=O)N[C@@H](Cc1ccccc1)[C@H](O)CNC[C@@H](O)[C@H](Cc1ccc(OCc2nc3ccccc3o2)cc1)NC(=O)OC(C)(C)C [Compound 242, [1S-[1R*,2S*(2S*,3R*)]]-[3-[[4-[4-[(2-Benzoxazolyl)methoxy]phenyl]-3-[[(1,1-dimethylethoxy)carbonyl]amino]-2-hydroxybutyl]amino]-2-hydroxy-1-(phenylmethyl)propyl]carbamic acid, 1,1-dimethylethyl ester] | 110
45 | CC[C@H](C)[C@H](NC(=O)OC(C)(C)C)[C@H](O)CNC[C@@H](O)[C@@H](NC(=O)OC(C)(C)C)[C@@H](C)CC [Compound 13, [R-(R*,S*)]-[Iminobis[2-hydroxy-1-(1-methylpropyl)-3,1-proyanediyl]]biscarbamic acid, 1,1-dimethylethyl ester] | 5300
91 | CC(C)(C)OC(=O)N[C@@H](Cc1ccccc1)[C@H](O)CNC[C@@H](O)[C@H](Cc1ccccc1)NC(=O)[C@H](Cc1ccccc1)NC(=O)OCc1ccccc1 (relative stereo) [Compound 55, [1R*,2S*(2S*,3R*)]-N-[[3-[[(1,1-Dimethylethoxy)carbonyl]amino]-2-hydroxy-4-phenylbutyl]amino]-2-hydroxy-1-(phenylmethyl)propyl]-N^2-[(phenylmethoxy)carbonyl]-L-phenylalaninamide] | 700
99 | CC(C)[C@H](NC(=O)OCc1ccc(-c2ccccc2)cc1)C(=O)N[C@@H](Cc1ccccc1)[C@H](O)CNC[C@@H](O)[C@H](Cc1ccccc1)NC(=O)OC(C)(C)C [Compound 68, [S-[1R*,2S*(2S*,3R*)]]-N^2-[([1,1-Biphenyl]-4-ylmethoxy]carbonyl-N-[3-[[3-[[(1,1-dimethylethoxy)carbonyl]amino]-2-hydroxy-4-phenylbutyl]amino]-2-hydroxy-l-(phenylmethyl)[propyl]-L-valinamide] | 110
100 | CC(C)[C@H](NC(=O)OCc1nc2ccccc2o1)C(=O)N[C@@H](Cc1ccc(O)cc1)[C@H](O)CNC[C@@H](O)[C@H](Cc1ccccc1)NC(=O)OC(C)(C)C (relative stereo) [Compound 288, [1R*,2S*(2S*,3R*)]-N^2-[[(2-Benzoxazolyl)methoxy]carbonyl]-N-[3-[[3-[[(1.1-dimethylethoxy)carbonyl]amino]-2-hydroxy-4-phenylbutyl]amino]-2-hydroxy-1-[(4-hydroxyphenyl)methyl]propyl]-L-valinamide] | 470
99 | CC(C)(C)OC(=O)N[C@@H](Cc1ccccc1)[C@H](O)CNC[C@@H](O)[C@H](Cc1ccc(OCCO)cc1)NC(=O)OC(C)(C)C [Compound 209, [1S-[1R*,2S*(2S*,3R*)]]-[3[[-3-[[(1,1-Dimethylethoxy)carbonyl]amino]-2-hydroxy-4-[4-(2-hydroxyethoxy)phenyl]butyl]amino]-2-hydroxy-1-(phenylmethyl)propyl]-carbamic acid, 1,1-dimethylethyl ester] | 30
100 | CC(C)(C)OC(=O)N[C@@H](Cc1ccccc1)[C@H](O)CNC[C@@H](O)[C@H](Cc1ccccc1)NC(=O)OC(C)(C)C [Compound 2, [1S-[1R*,2S*(2S*,3R*)]]-[3-[[3-[[(1,1-Dimethylethoxy)carbonyl]amino]-2-hydroxy-4-phenylbutyl]amino]-2-hydroxy-1-(phenylmethyl)propyl]carbamic acid, 1,1-dimethylethyl ester] | 90
72 | CC(C)(C)OC(=O)N[C@@H](Cc1ccccc1)[C@H](O)CNC[C@@H](O)[C@H](Cc1ccccc1)NC(=O)c1ccc2ccccc2c1 [Compound 64, [1S-[1R*,2S*(2S*,3R*)]]-[2-Hydroxy-3-[[2-hydrox-3-[(2-naphthalenyl-carbonyl)amino]-4-phenylbutyl]amino]-1-(phenylmethyl)propyl]carbamic acid, 1,1-dimethylethyl ester] | > 5000
99 | COC(=O)N[C@H](C(=O)N[C@@H](Cc1ccccc1)[C@H](O)CNC[C@@H](O)[C@H](Cc1ccc(OCCc2ccccn2)cc1)NC(=O)OC(C)(C)C)C(C)(C)C (relative stereo) [Compound 327, [1R*,2S*(2S*,3R*)-N-[3-[[3-[[(1,1-Dimethylethoxy)carbonyl]amino]-2-hydroxy-4-[4-[2-(2-pyridinyl)ethoxyl]phenyl]butyl]amino]-2-hydroxy-1-(phenylmethyl)propyl]-N^2-(methoxycarbonyl)-3-methyl-L-valinamide] | 50
100 | CC(C)[C@H](NC(=O)OCc1nc2ccccc2n1C)C(=O)N[C@@H](Cc1ccccc1)[C@H](O)CNC[C@@H](O)[C@H](Cc1ccccc1)NC(=O)OC(C)(C)C [Compound 170, [S-[1R*,2S*(2S*,3R*)]-N-[3-[[3-[[(1 l-Dimethylethoxy)carbonyl]amino]-2-hydroxy-4-phenylbutyl]amino]-2-hydroxy-1-(phenylmethyl)-propyl]-N^2-[[(1-methyl-1H-benzimidazol-2-yl)-methoxy]carbonyl]-L-valinamide] | 100
100 | CC(C)[C@H](NC(=O)OCC1=Cc2ccccc2C1)C(=O)N[C@@H](Cc1ccccc1)[C@H](O)CNC[C@@H](O)[C@H](Cc1ccccc1)NC(=O)OC(C)(C)C (relative stereo) [Compound 280, [1R*, 2S* (2S*, 3R*)]-N-[3-[[3-[[(1,1-Dimethylethoxy)carbonyl]amino]-2-hydroxy-4-phenylbutyl]amino]-2-hydroxy-1-(phenylmethyl)propyl]-N^2-[[(1H-inden-2-yl)methoxy]carbonyl]-L-valinamide] | 50
100 | CC(C)[C@H](NC(=O)CCc1c[nH]c2ccccc12)C(=O)N[C@@H](Cc1ccccc1)[C@H](O)CNC[C@@H](O)[C@H](Cc1ccccc1)NC(=O)OC(C)(C)C (relative stereo) [Compound 260, [1R*,2S*(2S*,3R*)]-N-[3-[[3-[[(1,1-Dimethylethoxy)carbonyl]amino]-2-hydroxy-4-phenylbutyl]amino]-2-hydroxy-1-(phenylmethyl)propyl]-N^2-[3-(1H-indol-3-yl)-1-oxo-propyl]-L-valinamide] | 290
94 | CC(C)C(NC(=O)OCc1ccccc1)C(=O)NC(Cc1ccccc1)C(O)CNCC(O)C(Cc1ccccc1)NC(=O)C(NC(=O)OCc1ccccc1)C(C)C [Compound 82, [S-[1R*,2R*(2S*,3R*)]]-N-[2-Hydroxy-3-[[2-hydroxy-4-phenyl-3-[[[N-(phenylmethoxy)carbonyl]-L-valyl]amino]butyl]amino]-1-(phenylmethyl)propyl]-N-^2-[(phenylmethoxy)carbonyl]-L-valinamide] | > 3000
